Experimental data from PubChem BioAssay AID296 (DTP/NCI, 2004).
Values joined by “and” are separate entries in the source; they are usually repeats but may differ in a detail not shown here. Equal values may be shown once. Inconclusive results are not listed. Where a SMILES comes first, the peptide text is derived from it. Bridges are numbered along the chain shown (N, C = ends). Roman numbers before positions name the chains, in order. [ ]: non-standard residue; d: D form. The star is where a group is joined. Quinoxaline2carbonyl = O=C(c1cnc2ccccc2n1)*; NMeV = CN[CH](C(=O)O)C(C)C; NMeC = CN[CH](CS)C(=O)O

Tested on: MX-1 breast xenograft, nude mice, tumor weight T/C
Test: NCI In Vivo Anticancer Drug Screen. Data for tumor model Human Mammary Carcinoma MX-1 Xenograft (intrarenal inoculation) in NU/NU Swiss (nude) mice
Settings: endpoint: mean tumor weight change, higher = larger tumour
Summary of the method: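 Mice carrying the implanted tumor receive either test agent or vehicle. Tumor size or survival is then recorded for both groups. Results are stated as the treated-to-control quotient.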

[1] = dose: 25.0 mg/kg/injection, schedule: Q01DX010 (sc), vehicle: Klucel (hydroxypropylcellulose) (HPC)
[2] = dose: 50.0 mg/kg/injection, schedule: Q01DX010 (sc), vehicle: Klucel (hydroxypropylcellulose) (HPC)
[3] = dose: 200.0 mg/kg/injection, schedule: Q01DX010 (sc), vehicle: Klucel (hydroxypropylcellulose) (HPC)
[4] = dose: 400.0 mg/kg/injection, schedule: Q01DX010 (sc), vehicle: Klucel (hydroxypropylcellulose) (HPC)
[5] = dose: 150.0 mg/kg/injection, schedule: Q04DX003 (sc), vehicle: saline with Tween-80
[6] = dose: 300.0 mg/kg/injection, schedule: Q04DX003 (sc), vehicle: saline with Tween-80
[7] = dose: 600.0 mg/kg/injection, schedule: Q04DX003 (sc), vehicle: saline with Tween-80
[8] = dose: 1200.0 mg/kg/injection, schedule: Q04DX003 (sc), vehicle: saline with Tween-80
[9] = dose: 100.0 mg/kg/injection, schedule: Q01DX010 (sc), vehicle: Klucel (hydroxypropylcellulose) (HPC)

COc1nc(C(Cl)(Cl)Cl)c(Cl)c(OC)c1Cl
T/C (dose: 75.0 mg/kg/injection, schedule: Q04DX003 (ip), vehicle: Klucel (hydroxypropylcellulose) (HPC)): 33 % of control | T/C (dose: 150.0 mg/kg/injection, schedule: Q04DX003 (ip), vehicle: Klucel (hydroxypropylcellulose) (HPC)): -28 % of control | T/C (dose: 150.0 mg/kg/injection, schedule: Q04DX003 (oral), vehicle: Klucel (hydroxypropylcellulose) (HPC)): -33 % of control | T/C (dose: 300.0 mg/kg/injection, schedule: Q04DX003 (ip), vehicle: Klucel (hydroxypropylcellulose) (HPC)): 10 % of control | T/C (dose: 300.0 mg/kg/injection, schedule: Q04DX003 (oral), vehicle: Klucel (hydroxypropylcellulose) (HPC)): -15 % of control

CC(=O)OCC1OC(n2ncc(=O)[nH]c2=O)C(OC(C)=O)C1OC(C)=O (stereo not given)
T/C (dose: 150.0 mg/kg/injection, schedule: Q04DX003 (sc), vehicle: suspension in saline): 67 % of control | T/C (dose: 300.0 mg/kg/injection, schedule: Q04DX003 (sc), vehicle: suspension in saline): 112 % of control | T/C (dose: 600.0 mg/kg/injection, schedule: Q04DX003 (sc), vehicle: suspension in saline): 78 % of control

C[Si](C)(C)O/C=C1/CCOC1=O
T/C (dose: 1200.0 mg/kg/injection, schedule: Q04DX003 (sc), vehicle: suspension in saline): 105 % of control | T/C (dose: 2400.0 mg/kg/injection, schedule: Q04DX003 (sc), vehicle: suspension in saline): 157 % of control

C=C(C)[C@H]1Cc2c(ccc3c2O[C@@H]2COc4cc(OC)c(OC)cc4[C@@H]2C3=O)O1
T/C (dose: 4.0 mg/kg/injection, schedule: Q01DX010 (sc), vehicle: saline with Tween-80): 94 % of control | T/C (dose: 8.0 mg/kg/injection, schedule: Q01DX010 (sc), vehicle: saline with Tween-80): 80 % of control

C=CCNc1ccc(C)cc1
T/C [1]: 97 % of control | T/C [2]: 69 % of control and 70 % of control | T/C [3]: 70 % of control and 76 % of control | T/C [4]: 16 % of control

COc1cc(NCc2ccc3nc(N)nc(N)c3c2C)cc(OC)c1OC (tested in a mixture with another compound)
T/C (dose: 10.0 mg/kg/injection, schedule: Q04DX003 (ip), vehicle: water): 92 % of control | T/C (dose: 20.0 mg/kg/injection, schedule: Q04DX003 (ip), vehicle: water): 100 % of control | T/C (dose: 40.0 mg/kg/injection, schedule: Q04DX003 (ip), vehicle: water): 101 % of control | T/C (dose: 80.0 mg/kg/injection, schedule: Q04DX003 (ip), vehicle: water): 115 % of control | T/C (dose: 160.0 mg/kg/injection, schedule: Q04DX003 (ip), vehicle: water): 70 % of control

Nc1nc(F)nc2c1ncn2C1OC(COP(=O)(O)O)C(O)C1O (stereo not given)
T/C (dose: 50.0 mg/kg/injection, schedule: Q01DX010 (sc), vehicle: saline): 86 % of control | T/C (dose: 100.0 mg/kg/injection, schedule: Q01DX010 (sc), vehicle: saline): 69 % of control | T/C (dose: 200.0 mg/kg/injection, schedule: Q01DX010 (sc), vehicle: saline): 91 % of control

COc1cc(C(=O)N/N=C/c2cccc([N+](=O)[O-])c2)cc(OC)c1OC
T/C [5]: 178 % of control | T/C [6]: 114 % of control | T/C [7]: 67 % of control | T/C [8]: 108 % of control

CC1CCC(NC(=O)N(CCCl)N=O)CC1 (stereo not given)
T/C (dose: 6.25 mg/kg/injection, schedule: Q01DX010 (sc), vehicle: Klucel (hydroxypropylcellulose) (HPC)): 74 % of control | T/C (dose: 12.5 mg/kg/injection, schedule: Q01DX010 (sc), vehicle: Klucel (hydroxypropylcellulose) (HPC)): 78 % of control

CCC1=C2C(=O)c3ccccc3C2=C(C)S(=O)(=O)O1
T/C [6]: 122 % of control | T/C [7]: 104 % of control | T/C [8]: 106 % of control

CC(=O)N(C)C
T/C (dose: 168.75 mg/kg/injection, schedule: Q04DX003 (sc), vehicle: saline): 81 % of control | T/C (dose: 337.5 mg/kg/injection, schedule: Q04DX003 (sc), vehicle: saline): 100 % of control | T/C (dose: 675.0 mg/kg/injection, schedule: Q04DX003 (sc), vehicle: saline): 85 % of control | T/C (dose: 1350.0 mg/kg/injection, schedule: Q04DX003 (sc), vehicle: saline): 61 % of control

CN(C)/N=N/c1nc[nH]c1C(N)=O
T/C [9]: 93 % of control | T/C [3]: 48 % of control | T/C [4]: 14 % of control

CN=S(=O)(OCCCCCOS(=O)(=NC)c1ccccc1)c1ccccc1 (stereo not given)
T/C [7]: 76 % of control

Nc1cc(Cl)c2[nH]cnc2n1
T/C (dose: 200.0 mg/kg/injection, schedule: Q04DX003 (sc), vehicle: water): 47 % of control | T/C (dose: 400.0 mg/kg/injection, schedule: Q04DX003 (sc), vehicle: water): 42 % of control | T/C (dose: 800.0 mg/kg/injection, schedule: Q04DX003 (sc), vehicle: water): 55 % of control

CC1NC(=O)C(NC(=O)c2cnc3ccccc3n2)COC(=O)C(C(C)C)N(C)C(=O)C2CSSCC(C(=O)N(C)C(C(C)C)C(=O)OCC(NC(=O)c3cnc4ccccc4n3)C(=O)NC(C)C(=O)N2C)N(C)C1=O (stereo not given) (I: Quinoxaline2carbonyl-SA[NMeC][NMeV] / II: Quinoxaline2carbonyl-SA[NMeC][NMeV]; ester I:1-II:C, I:C-II:1; disulfide I:3-II:3; configuration not given here)
T/C (dose: 100.0 micrograms/kg/injection, schedule: Q04DX003 (sc), vehicle: Klucel (hydroxypropylcellulose) (HPC)): 63 % of control | T/C (dose: 200.0 micrograms/kg/injection, schedule: Q04DX003 (sc), vehicle: Klucel (hydroxypropylcellulose) (HPC)): 62 % of control | T/C (dose: 400.0 micrograms/kg/injection, schedule: Q04DX003 (sc), vehicle: Klucel (hydroxypropylcellulose) (HPC)): 73 % of control | T/C (dose: 800.0 micrograms/kg/injection, schedule: Q04DX003 (sc), vehicle: Klucel (hydroxypropylcellulose) (HPC)): 46 % of control

COc1ccc2c(c1)CCn1c(C)c(COC(=O)NC(C)C)c(COC(=O)NC(C)C)c1-2
T/C (dose: 150.0 mg/kg/injection, schedule: Q04DX003 (sc), vehicle: distilled water + Tween-80): 6 % of control | T/C (dose: 300.0 mg/kg/injection, schedule: Q04DX003 (sc), vehicle: distilled water + Tween-80): 3 % of control | T/C (dose: 600.0 mg/kg/injection, schedule: Q04DX003 (sc), vehicle: distilled water + Tween-80): -100 % of control | T/C (dose: 1200.0 mg/kg/injection, schedule: Q04DX003 (sc), vehicle: distilled water + Tween-80): -100 % of control

COC1=CC(=O)C(OC)=C(OC)C1=O
T/C (dose: 37.5 mg/kg/injection, schedule: Q04DX003 (sc), vehicle: saline with Tween-80): 86 % of control | T/C [5]: 93 % of control

Nc1ncnc2c1ncn2C1OC(CO)C(O)C1O (stereo not given)
T/C (dose: 38.0 mg/kg/injection, schedule: Q04DX003 (sc), vehicle: saline): 84 % of control | T/C (dose: 100.0 mg/kg/injection, schedule: Q04DX003 (sc), vehicle: saline): 120 % of control | T/C (dose: 200.0 mg/kg/injection, schedule: Q04DX003 (sc), vehicle: saline with Tween-80): 100 % of control | T/C (dose: 200.0 mg/kg/injection, schedule: Q04DX003 (sc), vehicle: saline): 72 % of control and 85 % of control | T/C (dose: 400.0 mg/kg/injection, schedule: Q04DX003 (sc), vehicle: saline with Tween-80): 84 % of control | T/C (dose: 400.0 mg/kg/injection, schedule: Q04DX003 (sc), vehicle: saline): 91 % of control | T/C (dose: 800.0 mg/kg/injection, schedule: Q04DX003 (sc), vehicle: saline with Tween-80): 217 % of control | T/C (dose: 1600.0 mg/kg/injection, schedule: Q04DX003 (sc), vehicle: saline with Tween-80): 104 % of control | T/C (dose: 1600.0 mg/kg/injection, schedule: Q04DX003 (sc), vehicle: saline): 52 % of control

Brc1ccc(C[N+]23CN4CN(CN(C4)C2)C3)cc1
T/C (dose: 75.0 mg/kg/injection, schedule: Q04DX003 (sc), vehicle: saline with Tween-80): 84 % of control | T/C [5]: 99 % of control | T/C [6]: 89 % of control | T/C [7]: 73 % of control

CC(=O)[O][Pb]([O]C(C)=O)([c]1ccccc1)[c]1ccccc1
T/C [1]: 105 % of control | T/C [2]: 167 % of control | T/C [9]: 122 % of control | T/C (dose: 800.0 mg/kg/injection, schedule: Q01DX010 (sc), vehicle: Klucel (hydroxypropylcellulose) (HPC)): 51 % of control

CCOC(=O)/N=[N+](\[O-])c1ccccc1
T/C (dose: 37.5 mg/kg/injection, schedule: Q04DX003 (ip), vehicle: saline with Tween-80): 110 % of control

N#Cc1nc(C#N)c(Sc2ccccc2)c(Sc2ccccc2)c1Sc1ccccc1
T/C (dose: 25.0 mg/kg/injection, schedule: Q01DX010 (sc), vehicle: saline with Tween-80): 57 % of control | T/C (dose: 100.0 mg/kg/injection, schedule: Q01DX010 (sc), vehicle: saline with Tween-80): 24 % of control | T/C (dose: 200.0 mg/kg/injection, schedule: Q01DX010 (sc), vehicle: saline with Tween-80): 80 % of control
